The supplement of paper PMC5908809

Assays:
[1] = tested on: normal NK cells expanded with K562-aAPC; assay: percent inhibition of viability; higher = more inhibition; details: 72 h, IL-2 2.5 ng/mL
Protocol: (§1)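 Drug sensitivity and resistance testing on K562-aAPC-expanded normal NK cells: 5 concentrations (10-fold steps over a 10,000-fold range), 72 h at 37 °C, viability by CellTiter-Glo normalised to DMSO and benzethonium chloride controls; DSS from the fitted curve.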

[2] = tested on: normal NK cells expanded with K562-aAPC; assay: drug sensitivity score (DSS) (DSS units); higher = more sensitive; extreme values may be limits of the assay; details: 72 h; IL-2 2.5 ng/mL
Protocol: as §1

[3] = tested on: NK-YS (IL-2 2.5 ng/mL); assay: percent inhibition of viability; higher = more inhibition; details: 72 h
[4] = tested on: KHYG-1 (IL-2 2.5 ng/mL); assay: as above; details: 72 h
[5] = tested on: normal primary NK cells, pool 3 (3 donors) (IL-2 2.5 ng/mL); assay: as above; details: 72 h
[6] = tested on: KAI3 (IL-2 2.5 ng/mL); assay: as above; details: 72 h
[7] = tested on: NK-92 (IL-2 2.5 ng/mL); assay: as above; details: 72 h
[8] = tested on: normal primary NK cells, pool 1 (3 donors), resting (IL-2 0 ng/mL); assay: as above; details: 72 h
[9] = tested on: normal primary NK cells, pool 1 (3 donors) (IL-2 2.5 ng/mL); assay: as above; details: 72 h
[10] = tested on: NKL (IL-2 2.5 ng/mL); assay: as above; details: 72 h
[11] = tested on: YT (IL-2 2.5 ng/mL); assay: as above; details: 72 h
[12] = tested on: normal primary NK cells, pool 2 (3 donors) (IL-2 2.5 ng/mL); assay: as above; details: 72 h
[13] = tested on: IMC-1 (IL-2 20 ng/mL); assay: as above; details: 72 h
[14] = tested on: DERL-7 (IL-2 2.5 ng/mL); assay: as above; details: 72 h
[15] = tested on: SNK-6 (IL-2 2.5 ng/mL); assay: as above; details: 72 h
[16] = tested on: NK-YS (IL-2 2.5 ng/mL); assay: drug sensitivity score (DSS) (DSS units); higher = more sensitive; extreme values may be limits of the assay; details: 72 h
[17] = tested on: KHYG-1 (IL-2 2.5 ng/mL); assay: as above; details: 72 h
[18] = tested on: normal primary NK cells, pool 3 (3 donors) (IL-2 2.5 ng/mL); assay: as above; details: 72 h
[19] = tested on: KAI3 (IL-2 2.5 ng/mL); assay: as above; details: 72 h
[20] = tested on: NK-92 (IL-2 2.5 ng/mL); assay: as above; details: 72 h
[21] = tested on: normal primary NK cells, pool 1 (3 donors), resting (IL-2 0 ng/mL); assay: as above; details: 72 h
[22] = tested on: normal primary NK cells, pool 1 (3 donors) (IL-2 2.5 ng/mL); assay: as above; details: 72 h
[23] = tested on: NKL (IL-2 2.5 ng/mL); assay: as above; details: 72 h
[24] = tested on: YT (IL-2 2.5 ng/mL); assay: as above; details: 72 h
[25] = tested on: normal primary NK cells, pool 2 (3 donors) (IL-2 2.5 ng/mL); assay: as above; details: 72 h
[26] = tested on: IMC-1 (IL-2 20 ng/mL); assay: as above; details: 72 h
[27] = tested on: DERL-7 (IL-2 2.5 ng/mL); assay: as above; details: 72 h
[28] = tested on: SNK-6 (IL-2 2.5 ng/mL); assay: as above; details: 72 h

O=C(Nc1ccc(-c2ccnc(Nc3ccc(N4CCOCC4)cc3)n2)cc1)C1CCCN1 (configuration not stated) [XL019] (max concentration tested 10000 nM)
percent inhibition of viability [%]
Details | 1 nM | 10 nM | 100 nM | 1000 nM | 10000 nM
[1] | -3.5 | -1.96 | 2.68 | 12.6 | 72
[3] | -3 | -6.33 | -0.83 | 6.03 | 49.6
[4] | -4.32 | -2.94 | 2.79 | 6.64 | 81.2
[5] | -1.82 | 6.1 | -1.33 | 13.9 | 81.2
[6] | -6.77 | -0.02 | 6.51 | 18.2 | 83.2
[7] | 1.46 | -2 | -6.58 | -8.42 | 44.8
[8] | 1.73 | 2.9 | -4.73 | 19.1 | 61.7
[9] | -9.78 | 0.22 | -10.4 | 9.22 | 80
[10] | -2.13 | 4.85 | 23.2 | 31.3 | 72.5
[11] | 0.46 | -0.22 | 5.02 | 2.15 | 33.3
[12] | -2.68 | -3.46 | -5.23 | 19.5 | 74.1
[13] | -1.28 | -4.89 | 1.81 | -0.33 | 61.4
[14] | 0.19 | 0.52 | 7.06 | 25.9 | 71.8
[15] | -2.35 | -15.3 | 3.5 | -9.49 | 27.1

Details | drug sensitivity score
[2] | 6.07
[16] | 3.62
[17] | 5.54
[18] | 6.8
[19] | 7.51
[20] | 1.81
[21] | 6.18
[22] | 5.96
[23] | 9.26
[24] | 1.85
[25] | 7.07
[26] | 3.31
[27] | 6.99
[28] | 0.74

COCC[n+]1c2c(n(Cc3cnccn3)c1C)C(=O)c1ccccc1C2=O [YM155] (max concentration tested 10000 nM)
percent inhibition of viability [%]
Details | 1 nM | 10 nM | 100 nM | 1000 nM | 10000 nM
[1] | -6.82 | 3.02 | 36.7 | 96.8 | 100
[3] | 0.18 | 29 | 97.7 | 107 | 103
[4] | 2.01 | 20.5 | 102 | 106 | 102
[5] | -2.28 | 1.02 | 6.74 | 31.9 | 86.7
[6] | 8.21 | 49.4 | 93.5 | 106 | 103
[7] | -8.35 | 27.6 | 93.5 | 105 | 102
[8] | -2.05 | -12.4 | 35.7 | 79.2 | 98.8
[9] | -4.81 | -8.82 | 20.6 | 54.2 | 100
[10] | 10.2 | 90.5 | 104 | 108 | 102
[11] | 5.75 | 59.2 | 102 | 106 | 102
[12] | -1.75 | 4.96 | 15.5 | 50.5 | 97.1
[13] | 65.3 | 99.4 | 100 | 101 | 100
[14] | 7.39 | 49.9 | 100 | 101 | 100
[15] | 8.28 | 13.1 | 85.6 | 98.6 | 100

Details | drug sensitivity score
[2] | 22
[16] | 34.2
[17] | 33.8
[18] | 8.63
[19] | 35.8
[20] | 33.2
[21] | 19.1
[22] | 12.9
[23] | 42.9
[24] | 37.6
[25] | 12
[26] | 48.1
[27] | 36.2
[28] | 29.9

FC(F)c1nc2ccccc2n1-c1nc(N2CCOCC2)nc(N2CCOCC2)n1 [ZSTK474] (max concentration tested 10000 nM)
percent inhibition of viability [%]
Details | 1 nM | 10 nM | 100 nM | 1000 nM | 10000 nM
[1] | -8.61 | 1.11 | 12.5 | 35.9 | 49.6
[3] | -6.13 | -3.67 | 5.5 | 36 | 57.2
[4] | 1.03 | -2.51 | 5.44 | 17.9 | 48
[5] | -3.55 | -8.03 | -3.22 | 10.6 | 22
[6] | 4.91 | 1.34 | 14.2 | 43.2 | 55.8
[7] | 1.13 | 13.1 | 45.6 | 48.8 | 57.2
[8] | -19.3 | -14.1 | 10.2 | 27.2 | 41.5
[9] | -2.64 | -1.27 | 20.4 | 31.6 | 32.4
[10] | -4.7 | 3.86 | 6.05 | 54.5 | 69.3
[11] | 3.19 | 3.41 | 11.6 | 42.3 | 50.5
[12] | -2.66 | -3.09 | 1.26 | 20 | 34.2
[13] | 0.84 | -3.67 | -9.08 | -31.5 | -20.7
[14] | 6 | 10.9 | 36.5 | 75.4 | 81.7
[15] | 17.9 | -3.78 | -1.36 | 35.9 | 58.6

Details | drug sensitivity score
[2] | 7.86
[16] | 7.54
[17] | 4.45
[18] | 1.91
[19] | 9.53
[20] | 16.9
[21] | 5.69
[22] | 7.96
[23] | 11
[24] | 9
[25] | 3.84
[26] | 0
[27] | 18.4
[28] | 7.51
